In assay [1] the test system is S. aureus (CCUG 1800). Nature of the assay: Minimal microbicidal concentration (MMC99) assay, S. aureus. It is filed as cell-based. Conditions: for MMC99: S. aureus, Example 3; for MMC99 μM in 1% BHI medium / MMC99 μM in 50% SWF: screen 2, 2 hours; for MMC99 μM in 50% SWF: 50% heat inactivated simulated wound fluid. The essentials:
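Log-phase bacteria in 1% BHI were exposed to two-fold peptide dilutions for 2 h at 37 °C, in 1% BHI (160–1.25 μM, or 400–0.78 μM) or 50% heat-inactivated simulated wound fluid (400–0.78 μM). Suspension drops were plated on blood agar overnight. MMC99 is the lowest concentration giving 99% reduction of viable bacteria.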

In assay [2] the test system is S. aureus. Nature of the assay: Antimicrobial effect in infected wounds, ex vivo model on pig skin. The note with it: S. aureus in PBS/serum (50/50), peptide in H2O 0.1, 0.5 and 2 mg/ml, single administration, 4 hours. An excerpt:
FIG. 5. Dose response effect of, peptide 232 (SEQ ID NO 78)(A) and peptide 220 (SEQ ID NO 67)(B) on bacterial colonization of infected wounds in pig skin. […] Results are presented as relative bacterial survival (%) compared to control group±SEM (n=10 wounds). Statistical significance was estimated by Student's t test. *=p<0.05, **=p<0.01, ***=p<0.001.
The antimicrobial effects of the peptide 232 (SEQ ID NO: 78), and the peptide 220 (SEQ ID NO:67) were investigated in an ex vivo model on pig skin. The wounds were inoculated with S. aureus in the presence of PBS/Serum 50/50. Two hours after inoculation the wounds were treated with a single administration of the peptide or placebo (H2O). Four hours after the treatment bacteria were harvested and viable counts of each wound were determined.

The test system of assay [3] is MRSA (CCUG 41879). Nature of the assay: MMC99 assay, MRSA. It counts as cell-based. The procedure:
(§1) The antimicrobial effects of the peptides 232 (SEQ ID NO: 78), and 220 (SEQ ID NO:67) were analysed by MMC99 (minimal microbicidal concentration) assay against S. aureus (CCUG 1800), MRSA (CCUG 41879), P. aeruginosa (ATCC 15442), E. coli (CCUG 31246), S. pyogenes (CCUG 4207), P. acnes (CCUG 1794T), S. epidermidis (ATCC12228), K. pneumoniae (ATCC 13883), A. baumannii (ATCC 19606), and C. albicans (ATCC 64549). The peptides were purchased from Biopeptide Company (San Diego, Calif., USA) and Bachem AG (Bubendorf, Switzerland) and results are presented in Table 8A and 8B respectively.
(§2) Peptides were serially diluted in two different assay medium, 1% BHI medium (brain-heart infusion medium) or 50% heat inactivated simulated wound fluid (SWF), and thereafter incubated with the microorganisms for 2 hours. Drops of the suspension were placed on blood agar plates. The MMC99 values, i.e. the lowest peptide concentration needed to achieve a 99% reduction of viable microorganisms, were recorded. As presented in Table 8, all the peptides have the ability to kill microorganisms frequently appearing in infections.

The subject of assay [4] is S. pyogenes (CCUG 4207). Nature of the assay: MMC99 assay, S. pyogenes. It is filed as cell-based. The procedure:
as §1, §2

The test system of assay [5] is MRSA (CCUG 41879). The assay can be described thus: In vivo antimicrobial effect in excision wound model in rats. Also on record: species or system rat. The note with it: peptide in H2O 0.1, 0.5 and 2 mg/ml, single administration, 2 hours. The source says: FIG. 4. Dose-response effect of peptide 232 (SEQ ID NO 78)(A) and peptide 220 (SEQ ID NO 67)(B) on bacterial colonization of infected excision wounds in rats. […] Results are presented as relative bacterial survival (%) compared to control group±SEM (n=15 wounds). Statistical significance was estimated by Student's t test. *=p<0.05, **=p<0.01, ***=p<0.001.
The in vivo antimicrobial effects of the peptide 232 (SEQ ID NO: 78), and the peptide 220 (SEQ ID NO:67) were investigated in an excision wound model in rats. The wounds were inoculated with methicillin resistant S. aureus (MRSA) for two hours, followed by a single administration of peptide or control (H2O) for two hours before termination and harvest of the bacteria.

Entries after “also recorded” stand apart in the source; their conditions may differ. Some results are limits rather than exact numbers.

As to RRLWRRWMRKVL [Peptide 232], the MMC99 is 5 µg/mL in assay [1] (1% BHI); 44 µg/mL in assay [1] (50% SWF); 6 µg/mL in assay [3] (1% BHI); 100 µg/mL in assay [3] (50% SWF); under 3 µg/mL in assay [4] (1% BHI); over 200 µg/mL in assay [4] (50% SWF). Besides, in assay [1], the “MMC99 μM in 1% BHI medium” value is 12.5 µM. In assay [1], the “MMC99 μM in 50% SWF” value was 25 µM. In addition, the “bacterial colonization of infected wounds in pig skin (bacterial counts vs control)” value in assay [2] was “significant reduction in bacterial counts; also recorded: highly effective anti-infectious agents when applied locally”. Also, the “bacterial colonization of infected excision wounds (bacterial counts vs control)” value in assay [5] is on record as “significant reduction in bacterial counts; also recorded: pronounced antimicrobial effect”.

Turning to QSLARKLFQWLRNLRKVA [Peptide 220], the MMC99 in assay [1] (1% BHI) was 7 µg/mL; in assay [1] (50% SWF), 28 µg/mL; in assay [3] (1% BHI), 6 µg/mL; in assay [3] (50% SWF) it was 200 µg/mL; in assay [4] (1% BHI), under 3 µg/mL; in assay [4] (50% SWF) it was 50 µg/mL. Further, the “MMC99 μM in 1% BHI medium” value in assay [1] came to 12.5 µM. For the same sequence, in assay [1], the “MMC99 μM in 50% SWF” value is 25 µM. Besides, the “bacterial colonization of infected wounds in pig skin (bacterial counts vs control)” value in assay [2] is on record as “significant reduction in bacterial counts; also recorded: highly effective anti-infectious agents when applied locally”. The “bacterial colonization of infected excision wounds (bacterial counts vs control)” value in assay [5] is “significant reduction in bacterial counts; also recorded: pronounced antimicrobial effect”.

The values are drawn from patent US20140031296A1, “NEW SYNTHETIC PEPTIDES AND THEIR USE” (PERGAMUM AB, priority 2011, published 2014).
